Test results taken from ChEMBL document CHEMBL2417364, “Acetylated dammarane-type bisdesmosides from Combretum inflatum” (J Nat Prod, 2013).

Key:
Escherichia coli = experiment: Inhibition of biofilm formation in Escherichia coli UTI89 after 72 hrs by crystal violet staining; type: functional, organism-based; details: UTI89, 72 h
Staphylococcus aureus = experiment: Antibacterial activity against methicillin-resistant Staphylococcus aureus clinical isolate 108 at 16 ug/ml after 24 hrs by broth microdilution method; type: functional
NCI-H460 = experiment: Cytotoxicity against human NCI-H460 cells after 72 hrs; type: functional, cell-based; details: NCI-H460, 72 h

Structure (SMILES)	IC50 (Escherichia coli)	Activity (Staphylococcus aureus)	IC50 (NCI-H460)
CC(=O)O[C@@H]1[C@H](O[C@@H]2O[C@H](C)[C@H](O)[C@H](O)[C@H]2O)C[C@]2(C)[C@H]3[C@H](O[C@@H]4O[C@H](C)[C@H](O)[C@H](O)[C@H]4O)C[C@@H]4[C@@H]([C@](C)(O)CCCC(C)(C)O)CC[C@@]4(C)[C@]3(C)CC[C@H]2C1(C)C	≥ 30 µg/mL	–	–
CC(=O)O[C@@H]1[C@H](O[C@@H]2O[C@H](C)[C@@H](O)[C@H](O)[C@H]2O)C[C@]2(C)[C@H]3[C@H](O[C@@H]4O[C@H](C)[C@H](O)[C@H](O)[C@H]4O)C[C@@H]4[C@@H]([C@](C)(O)CCCC(C)(C)O)CC[C@@]4(C)[C@]3(C)CC[C@H]2C1(C)C	≥ 30 µg/mL	–	–
CC(=O)O[C@@H]1[C@H](O[C@@H]2O[C@H](C)[C@H](O)[C@H](O)[C@H]2O)C[C@]2(C)[C@H]3[C@H](O[C@@H]4O[C@H](C)[C@H](O)[C@H](O)[C@H]4O)C[C@@H]4[C@@H](/C(C)=C/CCC(C)(C)O)CC[C@@]4(C)[C@]3(C)CC[C@H]2C1(C)C	≥ 30 µg/mL	71%	–
CC(=O)O[C@@H]1[C@H](O[C@@H]2O[C@H](C)[C@@H](O)[C@H](O)[C@H]2O)C[C@]2(C)[C@H]3[C@H](O[C@@H]4O[C@H](C)[C@H](O)[C@H](O)[C@H]4O)C[C@@H]4[C@@H](/C(C)=C/CCC(C)(C)O)CC[C@@]4(C)[C@]3(C)CC[C@H]2C1(C)C	≥ 30 µg/mL	64%	–
CC(=O)O[C@@H]1[C@H](O[C@@H]2O[C@H](C)[C@H](O)[C@H](O)[C@H]2O)C[C@]2(C)[C@H]3[C@H](O[C@@H]4O[C@H](C)[C@H](O)[C@H](O)[C@H]4O)C[C@@H]4[C@@H]([C@](C)(O)CCC=C(C)C)CC[C@@]4(C)[C@]3(C)CC[C@H]2C1(C)C	≥ 30 µg/mL	45%	–
CC(=O)O[C@@H]1[C@H](O[C@@H]2O[C@H](C)[C@@H](O)[C@H](O)[C@H]2O)C[C@]2(C)[C@H]3[C@H](O[C@@H]4O[C@H](C)[C@H](O)[C@H](O)[C@H]4O)C[C@@H]4[C@@H]([C@](C)(O)CCC=C(C)C)CC[C@@]4(C)[C@]3(C)CC[C@H]2C1(C)C	≥ 30 µg/mL	51%	–
CC(=O)O[C@@H]1[C@H](O[C@@H]2O[C@H](C)[C@H](O)[C@H](O)[C@H]2O)C[C@]2(C)[C@H]3[C@H](O[C@@H]4O[C@H](C)[C@H](O)[C@H](O)[C@H]4O)C[C@@H]4[C@@H]([C@@](C)(O)CCC=C(C)C)CC[C@@]4(C)[C@]3(C)CC[C@H]2C1(C)C	≥ 30 µg/mL	49%	3.9 µM
